The series can be described thus: Stability of Form M2 on storage, polymorph checked by PXRD. In kind it is physicochemical. The procedure: In one aspect, the present invention provides crystalline ixazomib citrate form M1. The ixazomib citrate forms of the present invention, including form M1, prepared by methods disclosed herein, may be characterized by PXRD. Therefore samples of each ixazomib citrate form (including amorphous, M1, M2, M3, and M4) were analyzed by PXRD on a BRUKER D-8 Discover powder diffractometer equipped with a goniometer of θ/2θ configuration and Lynx Eye detector. The Cu-anode X-ray tube was operated at 40 kV and 30 mA. The experiments were conducted over the 2θ range of 2.0°-50.0°, 0.030° step size, and 0.4 seconds step time.

With `CC(C)C[C@H](NC(=O)CNC(=O)c1cc(Cl)ccc1Cl)B1OC(=O)C(CC(=O)O)(CC(=O)O)O1` [Form M2, 2,2′-{2-[(1R)-1-({[(2,5-dichlorobenzoyl)amino]acetyl}amino)-3-methylbutyl]-5-oxo-1,3,2-dioxaborolane-4,4-diyl}diacetic acid], the “Long-term physical stability (change in PXRD pattern)” value (1, 3 and 6 months stored at 5±3° C., at 25° C./60% and at 40° C./75% relative humidity (RH)) is listed as “does not show any change in PXRD pattern”. For the same compound, the “Polymorph by PXRD” value is, setting by setting: (at 5 ± 3° C., 1 month) “Form M2”; (at 5 ± 3° C., 3 months) “Form M2”; (at 5 ± 3° C., 6 months) “Form M2”; (at 5 ± 3° C., Initial) “Form M2”; (at 25° C./60% RH, 1 month) “Form M2”; (at 25° C./60% RH, 3 months) “Form M2”. The “Polymorph by PXRD” value was “Form M2” (at 25° C./60% RH, 6 months); “Form M2” (at 25° C./60% RH, Initial); “Form M2” (at 40° C./75% RH, 1 month); “Form M2” (at 40° C./75% RH, 3 months); “Form M2” (at 40° C./75% RH, 6 months); “Form M2” (at 40° C./75% RH, Initial).

Source of the values: patent US20180282351A1, “Amorphous Ixazomib Citrate” (Mylan Laboratories Ltd, priority 2015, published 2018).
